Results on one substance are retold here after publication PMC12583694, “RNF114 and RNF166 exemplify reader-writer E3 ligases that extend K11 polyubiquitin onto sites of MARUbylation” (The EMBO Journal, 2025).

One assay has as its target T1, RNF114 (Homo sapiens, UniProt Q9Y508).
T1 construct: full-length RNF114, N-terminal His-3C fusion (pOPIN-B), expressed in E. coli Rosetta; cobalt resin and gel filtration
As to the kind of experiment: fluorescence polarization. The assay is classed as binding. The following applies: labelled compound; unreliable (estimated, saturation not reached); pH 7.4, 150 mM NaCl, 0.1 mg/mL BSA, 1 mM TCEP, 22 °C.

In assay [1] the target is T2, AF1521 macrodomain (GST-AF1521) (Archaeoglobus fulgidus, UniProt O28751).
T2 construct: gene AF_1521; GST-AF1521 plasmid (gift from M. Nielsen), purified as previously reported
T2 sequence (O28751 1-192): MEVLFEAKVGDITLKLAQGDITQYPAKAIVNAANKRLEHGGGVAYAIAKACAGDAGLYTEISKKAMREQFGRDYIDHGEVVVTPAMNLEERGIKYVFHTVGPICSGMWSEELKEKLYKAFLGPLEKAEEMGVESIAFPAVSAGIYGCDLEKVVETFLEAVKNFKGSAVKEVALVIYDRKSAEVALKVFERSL
Nature of the assay: fluorescence polarization. The conditions noted are these: labelled compound; pH 7.4, 150 mM NaCl, 0.1 mg/mL BSA, 1 mM TCEP, 22 °C; one-site total binding fit.

T1 sequence (Q9Y508 whole entry, the tested form may be a part): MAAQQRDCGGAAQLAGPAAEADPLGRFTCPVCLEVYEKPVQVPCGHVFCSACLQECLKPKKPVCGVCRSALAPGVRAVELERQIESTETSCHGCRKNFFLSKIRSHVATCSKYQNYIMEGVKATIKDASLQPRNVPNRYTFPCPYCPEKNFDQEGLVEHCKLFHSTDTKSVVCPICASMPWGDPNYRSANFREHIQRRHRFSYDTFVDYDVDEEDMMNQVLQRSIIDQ

In the case of ADPr^T, the Kd on RNF114 is ~ 40 µM; in assay [1], 1200 nM.
